Values quoted from earlier work in article PMC8917853, “Synthesis and evaluation of ^99mTc-DOTA-ARA-290 as potential SPECT tracer for targeting cardiac ischemic region” (Iranian Journal of Basic Medical Sciences, 2021).
Like-named read-outs stand apart in the source and are kept apart here. Non-standard residues stand in square brackets, D forms with d. pGlu = O=C1CC[C@@H](C(=O)O)N1

Tests used:
[1] = cited from earlier work
Description: Myocardial infarction, the most prominent cardiovascular disease outcome (CVD), is the main reason for morbidity and death in the world ([1]). Immediate and precise diagnosis of cardiac hypoxia and ischemia is very critical and crucial for appropriate treatment and prevention of myocardial damage ([2]). Evaluation of cardiac ischemic biomarkers in blood plasma, including Creatine Kinase-MB, cardiac troponin, and lactate dehydrogenase (LDH) is valuable for diagnosis; however, their levels increase in blood after a delay of time ([3]).

[2] = metabolic stability; 41 (Yang et al.); cited from earlier work
Description: Myocardial SPECT imaging as a nuclear cardiological scan has been used in many procedures for ischemic heart diseases ([36]). In the mid-1970s, […]-201 (201TI) imaging has been used to ascertain regional myocardial perfusion models at rest, stress, and acute myocardial infarction, but because of the concerns about medical exposure to ionizing radiation and lower image quality, ^201Tl was substituted by ^99mTc-labeled perfusion agents (^99mTc-sestamibi and ^99mTc-tetrofosmin). However, these SPECT agents show poor pharmacokinetic features with reducing uptake with higher flows ([37], [38]) ...

Substance: [pGlu]EQLERALNSS-OH [ARA-290, 11 amino acid nonhematopoietic peptide derived from helix B of EPO]
- half-life ([1]; in rabbits): roughly 2 min
- half-life ([1]; in rats): roughly 2 min
- in vivo stability [2]: 2 min
